The source of these data is patent US12447167B2, “GM-CSF-producing t-cell control agent and Th1/Th2 immune balance regulator” (National Center of Neurology and Psychiatry, priority 2014, dated 2025).

One may read the AUC(0-t) as exposure summed from dosing to a finite time, without extrapolation to infinity. By Cmax is commonly meant the maximum level reached in the sampled fluid or tissue. The term Tmax denotes the time at which the peak concentration occurs. For orientation: AUC(0-inf) means the area under the concentration-time curve extrapolated to infinity. What is called half-life is how long it takes for the measured level to halve. Read a low half-life as rapid decline.

A short description of series [1]: Disposition after single oral dose, MS patients. It counts as in vivo, human. The following applies: 0.3 mg/body single oral. The procedure: In the similar manner as in Example 5, a single dose of compound 31 labeled with ^14C was orally administered to each of 2 MS patients (subjects) after obtainment of informed consent, and the concentration of the compound in blood was measured and each parameter was calculated by collecting blood after a lapse of a given time.

Series [2] can be described thus: Disposition after single oral dose, rat. It counts as in vivo. The following applies: male rat, 10 mg/kg single oral, 14C-labeled, fasting. How it is done:
After a single dose of compound 31 labeled with ^14C was orally administered at a predetermined dose to each of a male mouse, a male rat, and a male cynomolgus monkey under fasting conditions, the concentration in blood was measured after a lapse of a given time, and parameters such as maximum plasma concentration Cmax, time Tmax to reach the maximum plasma concentration, half-life t1/2, area under curve AUC0-∞, mean retention time MRT0-∞, and bioavailability BA were calculated. The concentration in blood in humans (normal subjects) was measured and each of the parameters was calculated, in the similar manner as above except that ^14C-unlabeled compound 31 was used.
In the tables, “N.D.” means not detected.

For a further series, the system named is IL-17. The series can be described thus: IL-17 expression level of sorted CD4-positive memory T-cells of MS patients (ELISA of culture supernatant). It counts as in vivo, human. The settings on record: 0.3 mg single oral. How it is done: A single dose of compound 31, which is a synthetic glycolipid of the present invention, described in the first aspect was orally administered to each of 2 MS patients (subjects) shown in Table 2 above after obtainment of informed consent. The dose was set to 0.3 mg per person.
Subsequently, T-cell subfractions were prepared from the peripheral blood of each subject by using the density gradient centrifugation method. First, a total of 20 mL of blood was collected from the vein of each subject 24 hours (1st day), 48 hours (2nd day), 72 hours (3rd day), 168 hours (7th day), and 192 hours (8th day) after the administration of compound 31 by using two 10-mL heparin sodium-containing vacuum blood collection tubes. For a control, 20 mL of blood was similarly collected from the vein of each subject one day before the administration of compound 31.
The collected PBMCs were stained with antibodies by the following method. First, 10 μL of a solution consisting of 20 μL of MACS buffer, 0.25 μL of APC-Cy7-anti-CD3 antibody (BioLegend, Inc.), 1 μL of PB-anti-CD4 antibody (BioLegend, Inc.), 1 μL of PerCP-Cy5.5-anti-CD45RA antibody (BioLegend, Inc.), and 1 μL of PC7-anti-CD56 antibody (Beckman Coulter, Inc.) was added to 6×10^6 cells of PBMCs, thoroughly mixed by vortexing, and then left on ice for 20 minutes. CD56 is a detection marker of cells having NK activity, and CD3^−CD56^− cells indicate being antigen-presenting cells (APCs). […]
mCD4T and APC obtained by the sorting were each suspended in a medium consisting of 500 mL of RPMI1640 (GIBCO/Thermo Fisher Scientific Inc.), 5 mL of glutamine (200 mM, Wako Pure Chemical Industries, Ltd.), 5 mL of Pen/strep (10,000 U/mL, GIBCO/Thermo Fisher Scientific Inc.), 0.5 mL of 2-mercaptoethanol (GIBCO/Thermo Fisher Scientific Inc.), and 50 mL of 10% (v/v) Cellect FETAL BOVINE SERUM (MP Biomedicals, LLC), and the number of cells was measured. […]
After the culture, a culture supernatant was collected, and IFN-γ, IL-4, IL-17, and GM-CSF were measured by the ELISA method. […]
Background: ELISA stands for enzyme-linked immunosorbent assay.

The structures appear in SMILES notation.

As for `CCCCCCCCCCCCCCCCCCCCCCCC(=O)NC(COC1OC(CO)C(O)C(O)C1O)[C@H](O)C(O)CCCCC` (stereo in doubt) [compound 31, (2S,3S,4R)-1-O-(α-D-galactosyl)-2-(N-tetracosanoylamino)-1,3,4-nonanetriol], the “concentration in blood in MS patients as compared with normal persons” value in series [1] was “low concentration in blood”. For the same compound, the AUC(0-t) in series [1] (human, blood) was determined as 1.41 ng·h/mL; in series [2] (blood), 3130 ng·h/mL. Moreover, the Cmax came out at 0.122 ng/mL in series [1] (human, blood) and 128 ng/mL in series [2] (plasma). Further, the time to peak (Tmax) in series [1] (human, blood) came to 18 h; in series [2] (plasma) it was 8 h. The compound also came in with an AUC(0-inf) in series [2] (blood) of 3330 ng·h/mL. The compound also gave a half-life in series [2] (blood) of 26 h. Moreover, the MRT inf in series [2] (blood, read-out: MRT0-∞) is 32.4 h. For the same compound, in series [2], the BA was determined as 0.51%. The compound further showed a Rate of absorption in series [2] of 0.96%. In addition, the concentration in blood in series [2] (4 h) worked out at 31; in series [2] (8 h), 128; in series [2] (12 h), 101; in series [2] (24 h), 47.1; in series [2] (48 h) it was 18.5; in series [2] (72 h) it was 10.2. Further, the IL-17 expression level stood at 491.24 in the series with IL-17 (day 8, MBP stimulation, day −1 value 916.90) and 158.50 with IL-17 (day 8, OVA stimulation, day −1 value 666.56). For the same compound, the “change of expression level of IL-17” value in the series with IL-17 (day8 vs day-1) was “decreased”.
